Assay results reported in US20160257697A1, “THIOPHENE-SUBSTITUTED TETRACYCLIC COMPOUNDS AND METHODS OFUSE THEREOF FOR THE TREATMENT OF VIRAL DISEASES” (priority 2013, published 2016).
pIC50: −log10 of the molar value. Where two headings read alike, the source gives them in different places.

What was measured:
Test in all cases: microbe, parasite or virus in culture
Assay type in all cases: cell-based, Hepatitis C virus (HCV)
[1] = tested on: HCV replicon 1A; settings: Replicon Assay A
Procedure, shortened: (§1)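 Three-day treatment of replicon cells (2000/well, 5% FBS, 0.5% DMSO), followed by TaqMan RT-PCR of replicon RNA with cyclophilin as internal control.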

[2] = tested on: HCV replicon 2B; settings: Replicon Assay A
Procedure, shortened: as §1

[3] = tested on: HCV replicon 1B; settings: Replicon Assay B
Description: In an alternate assay (“Replicon Assay B”), 1000 cells were seeded per well in a 384-well collagen coated black plate from Greiner bio-one (Cat #781946) in 5% FBS. Inhibitors of this invention were added at 24 h post-seeding, and the plates were incubated for 3 days. Cells were subsequently lysed with Qiagen lysis buffer (Cat #1062731) to extract the RNA. HCV replicon RNA level was measured by real-time PCR using the RNA-to-CT kit from Applied Biosystem (Cat #4392656) and genotype-specific primers and probes. The amplicon was located within NS5B. […] (SEQ. ID NO. 2); the probe sequence was FAM-labeled […] (SEQ. ID NO. 3).
The real-time RT-PCR reactions were run on ABI PRISM 7900HT or Viia7 Sequence Detection System using the following program: 48° C. for 30 minutes, 95° C. for 10 minutes, 40 cycles of 95° C. for 15 sec, 60° C. for 1 minutes.
Data for replicons 1A, 1AY93H and 2B were obtained using Replicon Assay A and data for replicons 1AQ30D and 1B were obtained using Replicon Assay B.

[4] = tested on: HCV replicon 1AY93H; settings: Replicon Assay A
Procedure, shortened: as §1

[5] = Hepatitis C virus, read-out: 1A Y93H IC50, HCV replicon 1A Y93H
[6] = Hepatitis C virus, HCV replicon 1A
[7] = Hepatitis C virus, HCV replicon 1B
[8] = read-out: 1A Y93H IC50, replicon 1AY93H

SMILES	pIC50 ([1]; replicon 1A)	pIC50 ([2]; read-out: 2B IC50, replicon 2B)	pIC50 ([3]; Hepatitis C virus, replicon 1B)	pIC50 [4, 8]	also measured
COC(=O)NC(C(=O)N1CCC[C@H]1c1ncc(-c2ccc3c(c2)cc2n3C(c3ccc(C4CC4)s3)Oc3cc(-c4cnc([C@@H]5CCCN5C(=O)[C@@H](NC(=O)OC)C(C)C)[nH]4)cc(F)c3-2)[nH]1)C1CCOC(C)(C)C1 (single isomer, unassigned) [Compound 225]	10.32	7.86	10.99		
COC(=O)N[C@H](C(=O)N1CCC[C@H]1c1ncc(-c2ccc3c(c2)O[C@@H](c2cc4c(s2)CCC4)n2c-3cc3cc(-c4cnc([C@@H]5CCCN5C(=O)[C@@H](NC(=O)OC)C(C)C)[nH]4)ccc32)[nH]1)C(C)C (single isomer, unassigned) [Compound 600]					pIC50 [4, 5]: 9.24; pIC50 [1, 6]: 10.59; pIC50 ([2]; Hepatitis C virus, read-out: 2B IC50, HCV replicon 2B): 8.96; pIC50 [3, 7]: 9.73
COC(=O)NC(C(=O)N1CCC[C@H]1c1ncc(-c2cc(F)c3c(c2)OC(c2ccc(C4CC4)s2)n2c-3cc3cc(-c4cnc([C@@H]5C[C@H]6C[C@H]6N5C(=O)[C@@H](NC(=O)OC)C(C)C)[nH]4)ccc32)[nH]1)C(C)(C)F (some centres unmarked) [Compound 97]			11.62		IC50 ([4]; Hepatitis C virus, read-out: 1A Y93H IC50 (nM), replicon 1AY93H): 0.008 nM; pIC50 ([1]; Hepatitis C virus, replicon 1A): 11.96; IC50 ([2]; Hepatitis C virus, read-out: 2B IC50 (nM), replicon 2B): 0.036 nM
COC(=O)N[C@H](C(=O)N1CCC[C@H]1c1ncc(-c2cc(F)c3c(c2)OC(c2ccc(C(C)(C)O)s2)n2c-3cc3cc(-c4cnc([C@@H]5CCCN5C(=O)[C@@H](NC(=O)OC)C(C)C)[nH]4)ccc32)[nH]1)C(C)C (single isomer, unassigned) [Compound 83]		9.10	11.51	9.38	pIC50 ([1]; Hepatitis C virus, replicon 1A): 11.49
CCc1ccc(C2Oc3cc(-c4cnc([C@@H]5CCCN5C(=O)C(NC(=O)OC)C5CCOC(C)(C)C5)[nH]4)cc(F)c3-c3cc4cc(-c5cnc([C@@H]6CCCN6C(=O)C(NC(=O)OC)C6CCOC(C)(C)C6)[nH]5)ccc4n32)s1 (single isomer, unassigned) [Compound 291]	11.62	10.55	11.64	9.55	
CCc1c2n(c3ccc(-c4cnc([C@@H]5CCCN5C(=O)[C@@H](NC(=O)OC)C(C)C)[nH]4)cc13)C(c1ccc(Cl)s1)Oc1cc(-c3cnc([C@@H]4CCCN4C(=O)[C@@H](NC(=O)OC)C(C)C)[nH]3)cc(F)c1-2 (some centres unmarked) [Compound 837]					pIC50 [4, 5]: 8.82; pIC50 [1, 6]: 11.60; pIC50 [3, 7]: 11.72
COC(=O)N[C@H](C(=O)N1CCC[C@H]1c1ncc(-c2cc(F)c3c(c2)OC(c2ccc(F)s2)n2c-3cc3cc(-c4cnc([C@@H]5CCCN5C(=O)[C@@H](NC(=O)OC)C(C)C)[nH]4)ccc32)[nH]1)C(C)C (single isomer, unassigned) [Compound 14]	11.70	9.64		10.23	pIC50 ([3]; replicon 1B): 11.62
CCc1c2n(c3ccc(-c4cnc(C5CCCN5C(=O)C(NC(=O)OC)C(C)C)[nH]4)cc13)C(c1ccc(C3CC3)s1)Oc1cc(-c3cnc(C4CCCN4C(=O)C(NC(=O)OC)C(C)C)[nH]3)cc(F)c1-2 (single isomer, unassigned) [Compound 838]					pIC50 ([1]; HCV replicon 1A): 11.26; pIC50 ([3]; HCV replicon 1B): 11.89
COC(=O)NC(C(=O)N1CCC[C@H]1c1ncc(-c2cc(F)c3c(c2)OC(c2ccc(C4CC4)s2)n2c-3cc3cc(-c4cnc([C@@H]5CCCN5C(=O)[C@@H](NC(=O)OC)C5CCOCC5)[nH]4)ccc32)[nH]1)C(C)(C)F (some centres unmarked) [Compound 170]	12.00	10.30		10.25	pIC50 ([3]; replicon 1B): 11.48
CC[C@@H]1CC(C(NC(=O)OC)C(=O)N2CCC[C@H]2c2ncc(-c3ccc4c(c3)cc3n4C(c4ccc(C5CC5)s4)Oc4cc(-c5cnc([C@@H]6CCCN6C(=O)[C@@H](NC(=O)OC)C(C)C)[nH]5)cc(F)c4-3)[nH]2)C[C@H](CC)O1 (single isomer, unassigned) [Compound 289]	11.51	8.25	11.38	8.91	
CCc1ccc(C2Oc3cc(-c4cnc([C@@H]5CCCN5C(=O)[C@@H](NC(=O)OC)C(C)C)[nH]4)cc(F)c3-c3cc4cc(-c5cnc([C@@H]6CCCN6C(=O)C(NC(=O)OC)C6C[C@@H](C)O[C@@H](C)C6)[nH]5)ccc4n32)s1 (single isomer, unassigned) [Compound 143]	9.95		11.23		
